Assays:
CCRF-CEM cells [1] = assay: Annexin V/PI detection of apoptosis and necrosis; assay type: cell-based, human; conditions: 0.1 μM, 72 h
Source text: A commercial annexin V/PI detection apoptosis kit was used to detect early apoptosis and necrosis according to the manufacturer’s instructions (Life Technologies, Carlsbad, CA, USA). Annexin V is a calcium-dependent phospholipid-binding protein, which binds to phosphatidylserine (PS). PS is predominantly located at the inner side of the plasma membrane under normal conditions and moves to outer surface of the membrane upon the onset of early apoptosis. This can be detected FITC-labeled annexin V. PI is a marker of late apoptosis and necrosis. We treated aliquots of 1×10^6 CCRF-CEM cells with 0.5-, 1-, 2- and 4-fold IC50 of Aloe-emodin for 48, 72 or 96 h, respectively. After washing the cells with PBS, they were stained with annexin V/FITC at room temperature for 10-15 min. Subsequently, cells were washed again and stained with PI in the dark. Then, the results were analyzed by a BD Accuri™ C6 flow cytometer at excitation wavelength 488 nm and emission wavelength 530 nm to record annexin V/FITC signals. The fluorescence of PI was detected at 488 nm excitation and was measured by a 610/20 nm band pass filter. At least three independent experiments were performed..

CCRF-CEM cells [2] = assay: Mitochondrial membrane potential (JC-1, flow cytometry); assay type: cell-based, human; conditions: CCRF-CEM, 0.01, 0.1, and 1 μM, 48 h
Source text: The JC-1 Mitochondrial Membrane Potential Assay Kit (Cayman Chemical, Ann Arbor, MI, USA) was applied for the detection of MMP by flow cytometry according to the manufacturer’s instructions. The cationic dye, 5, 5’, 6, 6’- tetrachloro- 1, 1’, 3, 3’- tetraethylbenzimidazolylcarbocyanine iodide (JC-1) enters the mitochondria and changes its fluorescent properties based on the aggregation of the probe. In healthy cells having high MMP, JC-1 forms complexes known as J-aggregates with intense red fluorescence. On the other hand, in cells with low MMP, JC-1 remains in its monomeric form showing green fluorescence. […] A LSR-Fortessa FACS analyzer (Becton–Dickinson) was used to detect the J-aggregate form of JC-1 with an excitation wavelength of 535 ± 20 nm and an emission wavelength of 590 ± 20 nm as well as the monomeric form of JC-1 at excitation and emission wavelengths of 485 and 535 nm, respectively. The results were analyzed by the FlowJo software (Celeza, Olten, Switzerland). 2×10^4 cells were counted for each experiment which were repeated in triplicate.

CCRF-CEM cells [3] = assay: Cell cycle analysis (PI, flow cytometry); assay type: cell-based, human; conditions: 0.01 μM and 0.1 μM, 24 h
Description: The cells were collected, washed in PBS and fixed with ice-cold 96% ethanol. After washing the cells with PBS again, the cells were dissolved in PBS and stained with propidium iodide (PI, Sigma-Aldrich) at a final concentration of 50 μg/mL for 15 min in the dark. Cell cycle analyses were performed using a BD Accuri™ C6 Flow cytometer (Becton-Dickinson, Heidelberg, Germany) at 488 nm excitation wavelength, and emission was measured by a 610/20 nm band pass filter. All experiments were performed at least in triplicates. The protocol has been recently reported by us.

[4] = tested on: drug-sensitive CCRF-CEM leukemia cells; assay: Resazurin reduction assay, CCRF-CEM; assay type: cell-based; conditions: Homo sapiens, 72 h
Source text: (§1) The cell lines used in the present work, their origins and maintenance conditions were previously reported. In brief, drug-sensitive CCRF-CEM and multidrug resistant P-glycoprotein-over-expressing CEM/ADR5000 leukemia cells, MDA-MB-231-pcDNA3 breast cancer cells and their transfectant subline MDA-MB-231-BCRP clone 23, HCT116 (p53^+/+) colon cancer cells and its knockout clone HCT116 (p53^-/-), U87.MG glioblastoma multiform cells and their transfectant subline U87.MGΔEGFR as well as HEK293 human embryonic kidney cells transfected with or without a cDNA for ABCB5 were used. The human peripheral mononuclear cells (PMNC) were isolated from fresh blood samples of a healthy donor by using Histopaque® (Sigma-Aldrich, Taufkirchen, Germany).
(§2) Resazurin reduction assay was conducted to test the cytotoxicity of the compounds. This assay is based on the reduction of resazurin to resorufin by viable cells. […] Briefly, aliquots of 0.5×10^4 adherent cells which were allowed to attach overnight and 1×10^4 suspension cells per well were seeded in 96-well-plates with or without the addition of varying concentrations of the test substance to get a total volume of 200 μL/well. After 72 h incubation and addition of resazurin (Sigma-Aldrich) for 4 h, staining was measured by an Infinite M2000 ProTM plate reader (Tecan, Germany) using an excitation wavelength of 544 nm and an emission wavelength of 590 nm. Each assay was independently performed for at least three times, with six parallel replicates each. The protocol has been recently reported. Fifty percent inhibition concentrations (IC50) represent the drug concentrations required to inhibit 50% of cell proliferation, which were fitted with nonlinear regression using GraphPad® Prism7.

[5] = tested on: multidrug-resistant P-glycoprotein-overexpressing CEM/ADR5000 leukemia cells; assay: Resazurin reduction assay, CEM/ADR5000; assay type: cell-based, human; conditions: for IC50: Homo sapiens, CEM/ADR5000, resazurin assay, 72 h
Source text: as §1, §2

| IC50 [4] [µM] | IC50 [5] [µM] | degree of resistance (IC50 CEM/ADR5000 divided by IC50 CCRF-CEM) ([5]; collateral sensitivity of CEM/ADR5000) [fold] | SMILES | apoptotic or necrotic cell death (CCRF-CEM cells [1]) | MMP depolarization (JC-1 fluorescence) (CCRF-CEM cells [2]) | cell cycle arrest (CCRF-CEM cells [3]) |
| --- | --- | --- | --- | --- | --- | --- |
| 0.0007 | 11 |  | COc1cccc2c1C(=O)c1c(O)c3c(c(O)c1C2=O)C[C@@](O)(C(=O)CO)C[C@@H]3O[C@H]1C[C@H](N)[C@H](O)[C@H](C)O1 [doxorubicin, Doxorubicin, reference compound] | late apoptosis and early necrosis | shift from red to green fluorescence | induced both S- and G2/M-arrest |
| 34.4 | 46.9 |  | O=C(O)c1cc(O)c2c(c1)C(=O)c1cccc(O)c1C2=O [rhein] |  |  |  |
| 35.6 | 35.3 |  | Cc1cc(O)c2c(c1)C(=O)c1cc(O)cc(O)c1C2=O [emodin, Emodin] |  |  |  |
| 124 | 74.8 | 0.61 | COc1cc(O)c2c(c1)C(=O)c1cc(C)cc(O)c1C2=O [physcion] |  |  |  |

— article PMC5915154, “Aloe-emodin as drug candidate for cancer therapy” (Oncotarget, 2018)
